Measured values taken from publication PMC12118597 (Science Advances, 2025).
Where “and” joins values, the source holds several entries; their conditions need not be identical. Equal entries are not always repeated. Where two headings read alike, the source gives them in different places.

What was measured:
[1] = target: T1, SARS-CoV-2 NSP3 macrodomain (Mac1) (Severe acute respiratory syndrome coronavirus 2, UniProt P0DTD1); assay type: binding; settings: for 1-BDC (PanDDA run, DMSO background map): event 1; for Total number of conformations: ligand conformations modeled in the crystal structure; for 2*(1-BDC) (%): occupancy estimate from PanDDA
[2] = target: T1, SARS-CoV-2 NSP3 macrodomain (Mac1); assay: biochemical; assay type: binding
[3] = PanDDA background density correction factor
[4] = TRUE = ligand-bound crystal structure obtained (PDB code given)
[5] = crystal soak concentration 20 mM
[6] = crystal soak concentration 20 mM, P43 crystals
[7] = refined crystallographic occupancy
[8] = site of Mac1 occupied in the X-ray crystal structure (Adenosine or Distal)
[9] = soak concentration 10 mM, P43 crystals
[10] = HTRF binding curve, SARS-CoV-2 Mac1
[11] = PanDDA background density correction, 1-BDC
[12] = crystal soak 10 mM, P43 crystal form
[13] = ligand-bound crystal structure obtained (TRUE)
[14] = site occupied in X-ray crystal structure
[15] = SARS CoV-2 macrodomain HTRF assay, dose-response
[16] = TRUE = crystal structure with ligand obtained
[17] = site of ligand in X-ray crystal structure
[18] = crystal soak concentration 10 mM
[19] = crystal soak concentration 10 mM, P43 crystals

SMILES | Occupancy difference (refined_occupancy - 2*(1-BDC)) [1] | 1-BDC [1, 3] | Total number of conformations [1] | 2*(1-BDC) (%) [1] [%] | Refined ligand occupancy (%) [1, 7] [%] | Hill slope [2, 10] | PanDDA run, overall: Hit [1, 12] | PanDDA run, DMSO background map: 1-BDC ([1]; crystal soak 10 mM) | PanDDA run, DMSO background map: Hit ([1]; crystal soak 10 mM) | X-ray crystal structure [1, 13] | Binding site [1, 14] | other results
OCC(Cc1ccccc1)Nc1ncnc2[nH]ccc12 (stereo not shown) [AVI-313] | 14 | 0.18 | 2 | 36 | 50 | 1.2 | – | – | – | – | – | X-ray crystal structure [1, 4]: TRUE; Hit (PanDDA run, DMSO background map) [1, 5]: TRUE; 1-BDC (PanDDA run, DMSO background map) [1, 5]: 0.25; Hit (PanDDA run, overall) [1, 6]: TRUE; Modeling comment (PanDDA run, overall) [1, 6]: Duplicate, not modeled; Binding site [1, 8]: Adenosine; PanDDA run, DMSO background map: 1-BDC ([1]; soak concentration 10 mM): 0.18; PanDDA run, DMSO background map: Hit ([1]; soak concentration 10 mM): TRUE; PanDDA run, DMSO background map: Modeled ([1]; soak concentration 10 mM): TRUE; PanDDA run, overall: Hit [1, 9]: TRUE; PanDDA run, overall: Modeled [1, 9]: TRUE; Hill slope ([2]; dose-response): 1.2
CC(CNC(=O)c1ccc2c(c1)CCC(=O)N2)C(=O)O (stereo not shown) [AVI-328] | 0 | 0.11 | 2 | 22 | 22 | 1.3 | – | – | – | – | – | X-ray crystal structure [1, 4]: TRUE; Binding site [1, 8]: Adenosine; PanDDA run, DMSO background map: 1-BDC ([1]; soak concentration 10 mM): 0.11 and 0.1; PanDDA run, DMSO background map: Hit ([1]; soak concentration 10 mM): TRUE; PanDDA run, DMSO background map: Modeled ([1]; soak concentration 10 mM): TRUE; PanDDA run, overall: Hit [1, 9]: TRUE; PanDDA run, overall: Modeled [1, 9]: TRUE; PanDDA run, overall: Modeling comment [1, 9]: Duplicate, not modeled; inhibition at 200 µM ([2]; compound at 200 μM, mean of three to four technical replicates, read-out: % competition at 200 μM (preliminary HTRF screen)): 50%; Hill slope ([2]; dose-response): 1.3
CC1CC(C(=O)O)CN(C(=O)CSc2ccc(O)cc2)C1 (stereo not shown) [AVI-334] | – | – | – | – | – | – | – | – | – | – | – | PanDDA run, DMSO background map: 1-BDC ([1]; soak concentration 10 mM): 0.07; PanDDA run, DMSO background map: Hit ([1]; soak concentration 10 mM): TRUE; PanDDA run, overall: Hit [1, 9]: TRUE; PanDDA run, overall: Modeling comment [1, 9]: Weak density, not modeled; Average % competition ([2]; single dose concentration 200 μM (TS-FrankenROCS series)): 25%
O=C1CCc2cc(C(=O)N3CC(C(=O)O)CCC34CCCC4)c(F)cc2N1 (stereo not shown) [AVI-338] | – | – | – | 14 | – | 1.5 | – | – | – | – | – | 1-BDC [1, 11]: 0.07; X-ray crystal structure [1, 4]: TRUE; Hit (PanDDA run, DMSO background map) [1, 5]: TRUE; Modeled (PanDDA run, DMSO background map) [1, 5]: TRUE; 1-BDC (PanDDA run, DMSO background map) [1, 5]: 0.07; Hit (PanDDA run, overall) [1, 6]: TRUE; Modeled (PanDDA run, overall) [1, 6]: TRUE; Refined ligand occupancy (%) ([1]; crystallographic refinement): 14%; Binding site [1, 8]: Adenosine; Hill slope ([2]; dose-response): 1.5
OC[C@@H]1C[C@H](O)CN1c1ncnc2[nH]ccc12 [AVI-610] | 18 | 0.21 | 1 | 42 | 60 | 1.2 | TRUE | 0.34 and 0.31 and 0.21 and 0.26 | TRUE | TRUE | Adenosine | Hill slope [2, 15]: 1.2
CC1(C)CCC(CO)N(c2ncnc3[nH]ccc23)C1 (stereo not shown) [AVI-3726] | 0 | 0.17 | 3 | 34 | 34 | – | TRUE | 0.17 | TRUE | TRUE | Adenosine | –
OCC1CC2(CCCCC2)CN1c1ncnc2[nH]ccc12 (stereo not shown) [AVI-3727] | 0 | 0.29 | 1 | 58 | 58 | – | TRUE | 0.29 | TRUE | TRUE | Adenosine | PanDDA run, overall: Modeling comment ([1]; crystal soak 10 mM): Distal site, weak density, not modeled
OCC1CC2(CCC2)CN1c1ncnc2[nH]ccc12 (stereo not shown) [AVI-3728] | 0 | 0.24 | 2 | 48 | 48 | – | TRUE | 0.24 | TRUE | TRUE | Adenosine | PanDDA run, overall: Modeling comment ([1]; crystal soak 10 mM): Distal site, weak density, not modeled
C[C@@H](O)[C@H](CO)Nc1ncnc2[nH]ccc12.O=C(O)C(F)(F)F [AVI-3730] | 0 | 0.14 | 1 | 28 | 28 | – | TRUE | 0.14 | TRUE | – | – | X-ray crystal structure [1, 16]: TRUE; Binding site [1, 17]: Adenosine
Cc1nn(C)cc1C1CC[C@H](CO)N1c1ncnc2[nH]ccc12 (stereo partly shown) [AVI-3733] | 20 | 0.1 | 1 | 20 | 40 | – | TRUE | 0.1 | TRUE | TRUE | Adenosine | PanDDA run, overall: Modeled [1, 12]: TRUE
OCC1CCC2(CCOCC2)CN1c1ncnc2[nH]ccc12 (stereo not shown) [AVI-4065] | – | – | – | – | – | 1.2 | – | – | – | – | – | Hill slope [2, 15]: 1.2
OC1(CNc2ncnc3[nH]ccc23)CCC2(CC1)OCCO2 [AVI-4315] | – | – | – | – | – | 1.2 | – | – | – | – | – | Hill slope [2, 15]: 1.2
CC(Nc1ncnc2[nH]ccc12)C1(O)CCCCC1 (stereo not shown) [AVI-4321] | – | – | – | – | – | 1.2 | – | – | – | – | – | Hill slope [2, 15]: 1.2
Cc1c[nH]c2ncnc(NCC3(O)CCC(O)CC3)c12 (stereo not shown) [AVI-4329] | – | – | – | 18 | – | – | – | – | – | TRUE | Adenosine | 1-BDC [1, 11]: 0.09; Hit (PanDDA run, DMSO background map) [1, 18]: TRUE; Modeled (PanDDA run, DMSO background map) [1, 18]: TRUE; 1-BDC (PanDDA run, DMSO background map) [1, 18]: 0.09 and 0.11; Hit (PanDDA run, overall) [1, 19]: TRUE; Modeled (PanDDA run, overall) [1, 19]: TRUE; Modeling comment (PanDDA run, overall) [1, 19]: Duplicate, not modeled; Refined ligand occupancy (%) ([1]; crystallographic refinement): 30%
CC(O)C(C)Nc1ncnc2[nH]ccc12 (stereo not shown) [AVI-5158] | – | – | – | 34 | – | – | – | – | – | – | – | 1-BDC [1, 11]: 0.17; X-ray crystal structure [1, 16]: TRUE; Refined ligand occupancy (%) ([1]; crystallographic refinement): 34%; Binding site [1, 17]: Adenosine
CC(C)C1CCCN1c1ncnc2[nH]ccc12 (stereo not shown) [AVI-5216] | – | – | – | 26 | – | – | – | – | – | TRUE | Adenosine | 1-BDC [1, 11]: 0.13; Refined ligand occupancy (%) ([1]; crystallographic refinement): 40%
CC(C)(C)C1CCCN1c1ncnc2[nH]ccc12 (stereo not shown) [AVI-6000] | – | – | – | 14 | – | – | – | – | – | TRUE | Adenosine | 1-BDC [1, 11]: 0.07; Refined ligand occupancy (%) ([1]; crystallographic refinement): 14%
